US12582677B2, “Methods for producing retinal tissue and retina-related cell” (SUMITOMO CHEMICAL COMPANY, LIMITED, priority 2011, dated 2026)

Key:
[1] = system: Human ES cells (KhES-1); experiment: Production of retinal pigment epithelium from human ES cell aggregates; assay type: cell-based; conditions: Matrigel and serum steps
Experimental: Human ES cells (KhES-1) were cultured according to the methods described in “Ueno, M. et al. PNAS 2006”, “Watanabe, K. et al. Nat Biotech 2007” and used for the experiment. As the medium, DMEM/F12 medium (Invitrogen) added with 20% KSR (Knockout Serum Replacement; Invitrogen), 0.1 mM 2-mercaptoethanol, 1 mM pyruvic acid, and 5 to 10 ng/ml bFGF was used. For the formation of retinal tissue by floating culture, the ES cells were dispersed into single cells by using 0.25% trypsin-EDTA (Invitrogen), suspended in a serum-free medium (100 μl) to 9×10^3 cells per well of a non-cell adhesive 96-well culture plate (SUMILON spheroid plate, SUMITOMO BAKELITE CO., LTD.) to allow for rapid formation of aggregates, and floating cultured at 37° C., 5% CO2. As the serum-free medium in this case, a serum-free medium obtained by adding 20% KSR, 0.1 mM 2-mercaptoethanol, 1 mM pyruvic acid, 20 μM Y27632 and a substance inhibiting the Wnt signal pathway (3 μM IWR1e) to G-MEM medium was used. Matrigel was added in an amount of 1/100 per volume from day 2 of the floating culture and floating culture was performed. The aggregate was transferred to a serum-free medium without containing a substance inhibiting the Wnt signal pathway on day 12 from the start of the floating culture, fetal calf serum in an amount of 1/10 per volume was added and cultured. […]

[2] = system: RAX::GFP knock-in human ES cells; experiment: Production of optic-cup-like structure from human ES cell aggregates; assay type: cell-based; conditions: 3 μM CHIR99021 and 100 nM SAG together in serum-containing medium from day 15
Experimental: RAX::GFP knock-in human ES cells (derived from KhES-1) were cultured according to the methods described in “Ueno, M. et al. PNAS 2006”, “Watanabe, K. et al. Nat Biotech 2007” and used for the experiment. As the medium, DMEM/F12 medium (Invitrogen) added with 20% KSR (Knockout Serum Replacement; Invitrogen), 0.1 mM 2-mercaptoethanol, 1 mM pyruvic acid, and 5 to 10 ng/ml bFGF was used. For the formation of aggregate by floating culture, the ES cells were dispersed into single cells by using 0.25% trypsin-EDTA (Invitrogen), suspended in a serum-free medium (100 μl) to 9×10^3 cells per well of a non-cell adhesive 96-well culture plate (SUMILON spheroid plate, SUMITOMO BAKELITE CO., LTD.) to allow for rapid formation of aggregates, and floating cultured at 37° C., 5% CO2. As the serum-free medium in this case, a serum-free medium obtained by adding 20% KSR, 0.1 mM 2-mercaptoethanol, 1 mM pyruvic acid, 20 μM Y27632 and a substance inhibiting the Wnt signal pathway (3 μM IWR1e) to G-MEM medium was used. During the floating culture, Matrigel in an amount of 1/100 per volume was added from day 2 from the start of the floating culture. The floating aggregate was transferred to a serum-free medium without a substance inhibiting the Wnt signal pathway on day 12 from the start of the floating culture, fetal calf serum in an amount of 1/10 per volume was added and the aggregate was cultured. […]

Activin A: substance acting on the Activin signal pathway; Recombinant Human/Mouse/Rat Activin A (R&D systems #338-AC)
retinal pigment epithelia on aggregates (bright-field) ([1]; Activin A 100 ng/ml with 3 μM CHIR99021 from day 15, after IWR1e): almost all the surfaces of the aggregates were covered with retinal pigment epithelia

Cc1c[nH]c(-c2cnc(NCCNc3ccc(C#N)cn3)nc2-c2ccc(Cl)cc2Cl)n1 [CHIR99021]
retinal pigment epithelium on aggregates (bright-field) ([1]; 3 μM CHIR99021 from day 15, after IWR1e): emerged on almost all surfaces of the aggregates | optic-cup-like structure formation on aggregate [2]: a clear optic-cup-like structure was formed
